These results are taken from paper PMC2632303 (Journal of molecular biology, 2008).

As usually defined, the Ki is the dissociation constant of the complex between target and ligand, obtained from inhibition or displacement.

Where no end group is shown, it is not given here.

Experiment [1] addresses T1, human 20S proteasome (Homo sapiens, UniProt P25788). The experiment can be described thus: Ki determinations, non-competitive kinetics with Suc-LLVY-AMC. The experiment is classed as biochemical. The settings on record: for Ki relative to PR11: comparison of Table III values.
For experiment [2], the system named is 20S proteasome. As to conditions: cited from earlier work.
Experiment [3] has as its target T1, human 20S proteasome. The experiment can be described thus: Inhibition of chymotrypsin-like activity of 20S proteasome by PR-peptides. The experiment is classed as biochemical. The settings on record: same experiment as I50; n of Eq. 1.

Take RRRPRPPALPRW [Peptide A8W12]: in experiment [1], the affinity, expressed as Ki, was 50.7 nM and the “Ki relative to PR11” value is reported as “nearly half of PR11”. For the sequence RRRPRPPFLPRW [Peptide F8W12], in experiment [1], the Ki was 184 nM and the “Ki relative to PR11” value is reported as “about two-fold greater than that of PR11”. As for RRRPRPPY [PR8], the “Inhibition of 20S proteasome” value in experiment [2] was “does not inhibit 20S proteasome”. As to RRRPRPPYLPR [PR11], the Ki in experiment [1] is 86.5 nM.

With “RRRPRPPYLPRPRPPPFFPPRLPPRIPPGFPPRFPPRFP [PR39]”, in experiment [3], the “N (fractional occupation of PR-peptide on 20S proteasome, derived from curve-fitting)” value is reported as 1.232. Take RRRPRPPYLPRW [Peptide W12]: the Ki in experiment [1] was determined as 39.5 nM.
